Source: US20220007687A1, “SHELF STABLE LIQUID FLAVORED CONCENTRATE” (DreamPak LLC, priority 2020, published 2022)

Columns and labels:
[1] = pH of acid solutions in water (Example 1); assay type: physicochemical; conditions: 22 g acid in 78 ml water; 2 ml of the mixture diluted in 250 ml water
Method: The pH, taste, and mouthfeel of lactic, citric, and malic acids are compared. With each acid, 22 g of the acid is mixed in 78 ml of water, then 2 ml of the mixture is diluted in 250 ml of water, and pH readings of the diluted solutions are obtained.

[2] = pH of acid solutions with sodium citrate buffer (Example 2); assay type: physicochemical; conditions: for delta pH: buffered concentrate (Example 2) compared to concentrate without buffer (Example 1); for pH: concentrate: 22 g acid, 2 g sodium citrate, 76 ml water
Method: The impact of adding a buffer to solutions of lactic, citric, and malic acid is researched. With each acid, 22 g of the acid is mixed with 2 g of sodium citrate in 76 ml of water, and pH readings of the concentrates are obtained, then 2 ml of the concentrates is diluted in 250 ml of water and the resulting solutions were evaluated for taste and mouthfeel.

pH [1]	delta pH [2]	pH [2]	SMILES
1.33	0.79	2.12	O=C(O)CC(O)C(=O)O (stereo not drawn) [Malic Acid, malic acid]
1.15	0.87	2.02	O=C(O)CC(O)(CC(=O)O)C(=O)O [Citric Acid, citric acid]
1.45	1.04	2.49	CC(O)C(=O)O (stereo not drawn) [Lactic Acid, 2-hydroxypropionic acid]
